Data as given in patent publication US11786485B2, “Methods and compositions for treating advanced stage non-small cell lung cancer” (Golden Biotechnology Corporation, priority 2016, dated 2023).
pIC50: −log10 of the molar value.

What was measured:
[1] = system: epidermal growth factor receptor (EGFR); conditions: human, in vivo; cited from earlier work
[2] = Safety pharmacology: central nervous system effect; assay type: in vivo; conditions: Sprague-Dawley rat
[3] = Toxicokinetic evaluations in rats and dogs; assay type: in vivo; conditions: for dose proportionality of exposure: rat and dog
Protocol: Toxicokinetic evaluations were performed on a 7-day dog study (100, 250, 500 mg/kg/day single dose, 500 mg/kg/day 3 days dose) and the two 28-day studies mentioned above (Rat: 10, 30, 100 mg/kg/day single and 28 days dose; Dog: 10, 30, 100 mg/kg/day single and 28 days dose).

[4] = 28-day toxicity study in dogs; assay type: in vivo; conditions: 28-day study, dog
Protocol: […]. Two 28-days toxicity studies were conducted to determine no observed adverse effect level (NOAEL) for Sprague-Dawley rats and beagle dogs. […].

[5] = 7-day toxicity study in dogs; conditions: beagle, dog, in vivo, 7-day study, read-out: maximum tolerated dose (MTD)
[6] = Genotoxicity tests (Ames, mammalian cell gene mutation, micronucleus, erythrocyte micronucleus)
[7] = 7-day toxicity study in rats; conditions: Sprague-Dawley, rat, in vivo, 7-day study, read-out: maximum tolerated dose (MTD)
hERG ion channel = hERG ion channel (Homo sapiens, UniProt Q12809); experiment: Safety pharmacology: binding activity with hERG ion channel in vitro
[8] = system: different cancer cell lines; experiment: Cancer cell death, IC50; assay type: cell-based
Source text: Compound 1 inhibited isoprenyltransferase activity and molecular docking analysis predicted that the isoprene unit and the 4′-hydroxy group of Compound 1 may play important roles in the interaction between Compound 1 and isoprenyltransferase. In addition, Compound 1 increased the expression level of beclin-1 (three-fold), LC3-II/I (P<0.01) and […] formation in lung cancer cells. Compound 1 may therefore inhibit Ras activation through inhibition of isoprenyltransferase, leading to autophagic cell death.

NSCLC = experiment: Phase 1 clinical study: efficacy (tumor overall response); assay type: in vivo, human; conditions: end of treatment
Protocol: (§1) A first-in-human phase 1 study was performed to determine the MTD and to evaluate PK, safety/tolerability and efficacy profiles of exemplary Compound 1 in NSCLC patients who are refractory to conventional treatment modalities. This open-label, non-randomized, dose-escalation study, which completed in February 2013, enrolled a total of 13 patients; seven males and six females, all of whom were Asian. A total of five patients were enrolled an accelerated titration phase (one patient each in the 50, 100, 200, 300, and 450 mg dose groups) and eight patients were enrolled in a standard titration phase (three patients in the 450 mg dose group and five patients in the 600 mg dose group).
The PPS was defined in the Phase 1 study as all patients who completed at least three cycles of treatment with proper imaging assessment (RECIST v.1.1).

[9] = 28-day toxicity study in rats; assay type: in vivo; conditions: rat
Protocol: . Two 28-days toxicity studies were conducted to determine no observed adverse effect level (NOAEL) for Sprague-Dawley rats and beagle dogs. […]

[10] = Phase 1 clinical study: safety/tolerability; assay type: in vivo
Protocol: as §1

[11] = Reproductive toxicity in vivo study; conditions: up to 80 mg/kg/day, Sprague-Dawley rats
[12] = Phase 1 clinical study: pharmacokinetics; assay type: in vivo
Protocol: as §1
Compound 1 will be administered as a single agent in this study at a dose of 600 mg per day (200 mg t.i.d. administered at 8-hour intervals). This dose regimen was chosen based on results from the Phase 1 clinical study involving NSCLC patients refractory to conventional treatment modalities, which reported good tolerability of Compound 1 up to 600 mg/day.

[13] = system: stage IV (including pleural effusion) non-squamous NSCLC; experiment: Phase II study in stage IV non-squamous NSCLC patients; assay type: in vivo, human
Source text: This is a single-arm, open-label, Phase II study in KRAS-positive and KRAS-negative patients with stage IV (including pleural effusion) non-squamous NSCLC who have failed two lines of anti-cancer therapy. This is defined as patients with radiologically confirmed disease progression following greater than or equal to two, but less than or equal to four, prior lines of systemic anti-cancer therapy. A maximum of 60 evaluable patients with NSCLC will receive Compound 1, of which 30 patients will be KRAS-positive and 30 patients KRAS-negative. An evaluable patient will have received at least one dose of Compound 1 and have a valid baseline tumor assessment. Enrollment will continue until the target number of evaluable patients has been enrolled.
Written informed consent must be obtained from all patients before initiating Screening. The Screening period will be up to 42 days in duration (Days −42 to −1). Following completion of all Screening assessments and confirmation of eligibility criteria, patients will receive Compound 1 200 mg three-times-a-day (t.i.d. at 8-hour intervals) on Day 0 for 12 weeks (one treatment cycle) or until documented evidence of disease progression, unacceptable toxicity, non-compliance or withdrawal of consent by the patient, or the investigator decides to discontinue treatment, whichever comes first. Study drug should be taken at 8-hour intervals. The time of study drug administration should be recorded in the patient diary.
The primary efficacy endpoint is progression-free survival (PFS) rate at 12 weeks, which is defined as the proportion of patients alive and progression-free at Week 12. Patients will be progression-free if they have no evidence of progressive disease (defined according to RECIST guidelines, version 1.1) from the start of treatment to Week 12.
The primary endpoint is the PFS rate at 12 weeks, defined as the proportion of patients alive and progression-free at Week 12. […]
Tumor response will be assessed at 6-week intervals during the first treatment cycle using the RECIST criteria version 1.1. […]

[14] = Safety pharmacology: respiratory system effect; assay type: in vivo; conditions: Sprague-Dawley rat
[15] = Preclinical pharmacokinetic studies; assay type: in vivo; conditions: preclinical PK studies
[16] = Tissue distribution in rat; assay type: in vivo; conditions: previous study
[17] = Safety pharmacology: cardiovascular effect; assay type: in vivo; conditions: beagle dogs

Sequence of hERG ion channel (Q12809 whole entry): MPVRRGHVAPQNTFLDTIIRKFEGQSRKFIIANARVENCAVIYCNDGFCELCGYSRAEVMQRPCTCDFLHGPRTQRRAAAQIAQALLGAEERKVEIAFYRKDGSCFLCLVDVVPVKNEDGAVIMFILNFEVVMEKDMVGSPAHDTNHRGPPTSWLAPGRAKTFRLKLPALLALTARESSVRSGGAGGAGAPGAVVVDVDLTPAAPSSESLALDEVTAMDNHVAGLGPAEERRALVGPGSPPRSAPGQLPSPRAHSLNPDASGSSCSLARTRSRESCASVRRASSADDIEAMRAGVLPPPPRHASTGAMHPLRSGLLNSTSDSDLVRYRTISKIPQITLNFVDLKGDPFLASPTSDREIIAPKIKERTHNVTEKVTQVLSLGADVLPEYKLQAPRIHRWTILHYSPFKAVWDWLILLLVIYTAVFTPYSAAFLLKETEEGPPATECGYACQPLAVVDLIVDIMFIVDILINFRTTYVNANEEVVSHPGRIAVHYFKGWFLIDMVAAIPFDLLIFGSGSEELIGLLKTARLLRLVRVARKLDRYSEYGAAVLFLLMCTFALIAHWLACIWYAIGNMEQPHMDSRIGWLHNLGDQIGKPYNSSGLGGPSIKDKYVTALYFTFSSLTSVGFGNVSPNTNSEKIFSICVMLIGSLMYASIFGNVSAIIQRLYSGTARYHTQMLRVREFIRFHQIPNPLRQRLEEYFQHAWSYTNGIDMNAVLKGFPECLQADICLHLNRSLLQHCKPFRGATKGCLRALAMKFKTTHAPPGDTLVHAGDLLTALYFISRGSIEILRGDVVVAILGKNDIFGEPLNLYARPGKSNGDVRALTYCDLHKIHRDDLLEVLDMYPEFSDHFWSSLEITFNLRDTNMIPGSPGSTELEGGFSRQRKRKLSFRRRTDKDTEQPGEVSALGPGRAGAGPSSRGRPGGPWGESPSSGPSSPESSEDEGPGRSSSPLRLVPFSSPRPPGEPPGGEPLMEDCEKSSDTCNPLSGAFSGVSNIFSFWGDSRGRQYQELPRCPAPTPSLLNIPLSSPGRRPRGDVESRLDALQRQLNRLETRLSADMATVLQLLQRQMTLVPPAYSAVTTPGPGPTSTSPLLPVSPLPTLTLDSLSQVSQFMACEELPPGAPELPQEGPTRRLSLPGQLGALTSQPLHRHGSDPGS

C#Cc1cccc(Nc2ncnc3cc(OCCOC)c(OCCOC)cc23)c1 [erlotinib]
response rate [1]: 60%

COC1=C(OC)C(O)C(C/C=C(\C)CC/C=C(\C)CCC=C(C)C)C(C)C1=O (stereo not shown) [Compound 1, 4-hydroxy-2,3-dimethoxy-6-methyl-5-(3,7,11-trimethyldodeca-2,6,10-trienyl)cyclohex-2-enone]
central nervous system effect [2]: no particular safety concerns | Tmax ([3]; Sprague-Dawley (rat), beagle (dog), rat, dog, in vivo, rats and dogs, 7-day and 28-day studies, read-out: peak time (Tmax)): 0.25 to 6 h | dose proportionality of exposure ([3]; after 1 day of treatment): trend of dose proportionality | dose proportionality of exposure ([3]; after 28 days of treatment): inconsistent phenomena | highest non-severely toxic dose (HNSTD) [4]: 30 mg/kg/day | MTD at 7 days [5]: 100 mg/kg/day | genotoxicity [6]: No genotoxicity | MTD at 7 days [7]: 100 mg/kg/day | binding activity with hERG ion channel (hERG ion channel): no particular safety concerns | pIC50 [8]: 5.19 to 5.65 | proportion of Per-Protocol patients with stable disease (NSCLC): 100% | toxicity of the high dose ([9]; 28-day study, 100 mg/kg/day): not severely toxic | NOAEL at 28 days ([9]; Sprague-Dawley, in vivo): 30 mg/kg/day | patients with Grade 3 TEAEs ([10]; 200 mg vertigo, 450 mg decreased appetite and encephalitis, unrelated to study drug): two | laboratory abnormality recorded as a TEAE ([10]; 450 mg dose group, considered unrelated to study drug): one case of hematuria of Grade 1 | patients with treatment-related TEAEs ([10]; 13 patients treated): 100% | Dose Limiting Toxicities (DLTs) ([10]; 50, 100, 200, 300, 450, 600 mg, Intent-to-Treat Population): No Dose Limiting Toxicities | toxicity profile ([10]; 50-600 mg dose levels): low toxicity profile | safety and tolerability ([10]; 50-600 mg dose levels, daily for 4 weeks): generally safe and well tolerated | clinically significant changes in vital sign, ECG and physical examination parameters ([10]; Follow-Up Visit): None of the patients | diarrhea, patients ([10]; Grade 1): 69.2% | gastrointestinal disorders, patients ([10]; Grade 1): 53.8% | nausea, patients ([10]; Grade 1): 46.2% | vomiting, patients ([10]; Grade 1): 46.2% | diarrhea, patients ([10]; Grade 2): 7.7% | gastrointestinal disorders, patients ([10]; Grade 2): 38.5% | nausea, patients ([10]; Grade 2): 7.7% | vomiting, patients ([10]; Grade 2): 23.1% | Grade 4 treatment-emergent adverse events (TEAEs) ([10]; NCI-CTCAE Version 4.03): No Grade 4 | diarrhea, patients ([10]; all grades): 76.9% | gastrointestinal disorders, patients ([10]; all grades): 92.3% | nausea, patients ([10]; all grades): 53.8% | vomiting, patients ([10]; all grades): 69.2% | ECOG score ([10]; all patients at all time points except two patients in the 450 mg group (scores 4 and 2)): 1 | patients reporting serious adverse events (SAEs) ([10]; two each at 450 and 600 mg, none related to study drug): four | reproductive toxicity [11]: no reproductive toxicity | differences in AUC0-24 within the 100-300 mg dose range ([12]; Day 1 and Day 28): no significant differences | proportionality of AUC0-24 to dose ([12]; Day 1 and Day 28): not linearly proportional | dose with the highest peak concentration (Cmax) over the 100-300 mg dose range ([12]; Day 28): 200 mg | extent of absorption versus dose ([12]; human, in vivo): dose proportional | rate and extent of absorption versus dose ([12]; human, in vivo): increased in a dose proportional manner | rate of absorption versus dose ([12]; human, in vivo): non-dose proportional | subjects alive or progression free at 12 week ([13]; 200 mg t.i.d., overall population): 4 subjects out of 20 | tumor progression free rate or proportion of patients alive at 12 weeks ([13]; KRAS mutant patients, 200 mg t.i.d.): 3/14 | efficacy for target and non-target lesions at lung related sites ([13]; preliminary phase 2 result): 5/11 | respiratory system effect [14]: no particular safety concerns | absorption [15]: fast absorption | metabolism profile [15]: CYP involved metabolism | organ distribution [15]: substantial organ distribution especially in the lung, heart, and kidney | tissue with the highest accumulation [16]: lung tissue | cardiovascular effect [17]: no particular safety concerns
